{
  "source": "patent US20100317575A1",
  "about": "“PHARMACEUTICAL COMPOSITION COMPRISING A PYRAZOLE-O-GLUCOSIDE DERIVATIVE” (BOEHRINGER INGELHEIM INTERNATIONAL GMBH, priority 2007, published 2010)",
  "key": {"[1]": {"tested_on": "Male Zucker Diabetic Fatty (ZDF) rats (ZDF/Crl-Lepr^fa)", "test": "HbA1c on day 37 of treatment in ZDF rats", "type": "in vivo, rat", "settings": "overnight fasted", "method": "All experimental protocols concerning the use of laboratory animals are reviewed by a federal Ethics Committee and approved by governmental authorities. Male Zucker Diabetic Fatty (ZDF) rats (ZDF/Crl-Lepr^fa) at the age of 12 weeks are treated for 5 weeks with the pyrazole-O-glucoside (16), i.e. 4-(2-fluoro-4-methoxy-benzyl)-1-isopropyl-5-methyl-3-β-D-glucopyranos-1-yloxy-1H-pyrazole, at a dose of 10 mg/kg administered twice daily in the morning and evening, or with metformin at a dose of 200 mg/kg once daily in the morning, or with the combination of the pyrazole-O-glucoside and metformin at the same dose regimens. Vehicle for administration is 0.5% aqueous hydroxyethylcellulose containing 0.015% Polysorbat 80. Control animals are dosed twice daily with vehicle alone. Blood samples are obtained by tail bleed. Blood glucose is measured with a glucometer and HbA1c is measured with an automated analyzer (Cobas Integra 400, Roche). Prior to start of treatment, the animals are randomized for blood glucose and HbA1c (n=10/group).\nOn day 37 of treatment, HbA1c is measured pre-dose in tail blood obtained from overnight fasted animals. The data are presented as mean±SEM."}, "[2]": {"tested_on": "Male Zucker Diabetic Fatty (ZDF) rats (ZDF/Crl-Lepr^fa)", "test": "Blood glucose AUC 0-7 h on day 20 of treatment in ZDF rats", "type": "in vivo, rat", "method": "All experimental protocols concerning the use of laboratory animals are reviewed by a federal Ethics Committee and approved by governmental authorities. […] Control animals are dosed twice daily with vehicle alone. Blood samples are obtained by tail bleed. Blood glucose is measured with a glucometer and HbA1c is measured with an automated analyzer (Cobas Integra 400, Roche). Prior to start of treatment, the animals are randomized for blood glucose and HbA1c (n=10/group). On day 20 of treatment, blood glucose is measured in tail blood pre-dose, 0.5 h, 1.5 h, 3 h, and 7 h after dosing. Blood glucose is quantified by calculating the total glucose AUC 0-7 h. The data are presented as mean±SEM. The two-sided unpaired Student t-test is used for statistical comparison of the control group and the active groups."}, "[3]": {"tested_on": "the diabetic", "settings": "metformin on its own; cited from earlier work"}},
  "data": [
    {"molecule": "COc1ccc(Cc2c(O[C@@H]3O[C@H](CO)[C@@H](O)[C@H](O)[C@H]3O)nn(C(C)C)c2C)c(F)c1", "note": "[(16), 4-(2-fluoro-4-methoxy-benzyl)-1-isopropyl-5-methyl-3-β-D-glucopyranos-1-yloxy-1H-pyrazole]", "values": [
      {"measurement": "reduction of HbA1c (numerically) versus control", "setting": "[1]; 10 mg/kg twice daily", "value": 2.1, "unit": "%"},
      {"measurement": "reduction of total glucose AUC 0-7 h versus control", "setting": "[2]; 10 mg/kg twice daily", "value": 38, "unit": "%"}
    ]},
    {"molecule": "CN(C)C(=N)N=C(N)N", "note": "[Metformin, metformin]", "values": [
      {"measurement": "average improvement in the HbA1c value", "setting": "[3]", "value": "1.0-1.5%"},
      {"measurement": "reduction of HbA1c (numerically) versus control", "setting": "[1]; metformin 200 mg/kg once daily", "value": 0.3, "unit": "%"},
      {"measurement": "reduction of total glucose AUC 0-7 h versus control", "setting": "[2]; metformin 200 mg/kg once daily", "value": 11, "unit": "%"}
    ]}
  ]
}
